pIC50: −log10 of the molar value.
target: human chemokine receptor CXCR7 (Homo sapiens (Human), UniProt P25106); assay: Tango CXCR7-bla U2OS beta-arrestin recruitment assay (beta-lactamase reporter, FRET), antagonism of CXCL12/SDF1-α; assay type: cell-based; details: antagonistic effect on CXCR7; Tango CXCR7-bla U2OS cells, CXCL12/SDF1-α at its EC80;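 also: compounds preincubated 15 min before CXCL12 addition, then 22 h at 37 °C, FRET emission ratio read with CCF4-AM substrate after 2 h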
Sequence (P25106 whole entry): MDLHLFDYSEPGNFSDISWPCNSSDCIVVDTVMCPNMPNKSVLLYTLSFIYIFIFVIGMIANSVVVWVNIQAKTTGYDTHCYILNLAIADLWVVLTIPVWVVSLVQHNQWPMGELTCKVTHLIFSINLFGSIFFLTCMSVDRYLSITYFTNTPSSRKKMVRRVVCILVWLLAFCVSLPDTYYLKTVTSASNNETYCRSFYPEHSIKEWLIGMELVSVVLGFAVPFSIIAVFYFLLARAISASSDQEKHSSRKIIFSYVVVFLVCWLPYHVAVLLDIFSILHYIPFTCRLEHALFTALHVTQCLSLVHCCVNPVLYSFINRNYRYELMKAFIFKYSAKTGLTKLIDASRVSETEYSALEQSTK

Row | SMILES | pIC50
1 | C[C@@H]1CCC[C@H]1N1CC[C@@H](NC(=O)c2cc(-c3c(F)cc(F)cc3F)on2)[C@H](C(=O)NC2(c3ccccn3)CC2)C1 (relative stereo) [Example 1.172, (3R*,4R*)-1-((1RS,2RS)-2-Methyl-cyclopentyl)-4-{[5-(2,4,6-trifluoro-phenyl)-isoxazole-3-carbonyl]-amino}-piperidine-3-carboxylic acid (1-pyridin-2-yl-cyclopropyl)-amide] | 7.14
2 | C[C@@H]1CCC[C@H]1N1CC[C@@H](NC(=O)c2cc(-c3ccc(F)cc3F)no2)[C@H](C(=O)NC2(c3ccccn3)CC2)C1 (relative stereo) [Example 1.175, (3R*,4R*)-4-{[3-(2,4-Difluoro-phenyl)-isoxazole-5-carbonyl]-amino}-1-((1RS,2RS)-2-Methyl-cyclopentyl)-piperidine-3-carboxylic acid (1-pyridin-2-yl-cyclopropyl)-amide] | 6.17
3 | C[C@@H](NC(=O)[C@]1(C)CN(C2CCCCC2)CC[C@H]1NC(=O)c1cc(-c2ccc(F)cc2F)on1)c1ccccn1 (relative stereo) [Example 5.001, (3R*,4R*)-1-Cyclohexyl-4-{[5-(2,4-difluoro-phenyl)-isoxazole-3-carbonyl]-amino}-3-methyl-piperidine-3-carboxylic Acid ((R)-1-pyridin-2-yl-ethyl)-amide] | 6.43
4 | O=C(N[C@@H]1CCN(C2CCCCC2)C[C@H]1C(=O)N[C@H]1C[C@@H]1c1ccccc1)c1cc(-c2c(F)cc(F)cc2F)on1 (single isomer, unassigned) [Example 1.046a] | 6.32
5 | CN(C)C(=O)[C@@H]1CN(C2CCCCC2)CC[C@H]1NC(=O)c1cn(-c2ccc(F)cc2F)nn1 (single isomer, unassigned) [Example 1.095a, (3R,4R)-1-Cyclohexyl-4-{[1-(2,4-difluoro-phenyl)-1H-[1,2,3]triazole-4-carbonyl]-amino}-piperidine-3-carboxylic acid dimethylamide or (3S,4S)-1-Cyclohexyl-4-{[1-(2,4-difluoro-phenyl)-1H-[1,2,3]triazole-4-carbonyl]-amino}-piperidine-3-carboxylic acid dimethylamide] | 6.89
6 | COCC(C)(C)NC(=O)[C@@H]1CN(C2CCCCC2)CC[C@H]1NC(=O)c1cc(-c2c(F)cc(F)cc2F)on1 (single isomer, unassigned) [Example 1.111a, (3R*,4R*)-1-Cyclohexyl-4-{[5-(2,4,6-trifluoro-phenyl)-isoxazole-3-carbonyl]-amino}-piperidine-3-carboxylic acid (2-methoxy-1,1-dimethyl-ethyl)-amide] | 6.03
7 | COCC(C)(C)NC(=O)[C@@H]1CN(C2CCCCC2)CC[C@H]1NC(=O)c1cc(-c2c(F)cc(F)cc2F)on1 (single isomer, unassigned) [Example 1.111b, (3R*,4R*)-1-Cyclohexyl-4-{[5-(2,4,6-trifluoro-phenyl)-isoxazole-3-carbonyl]-amino}-piperidine-3-carboxylic acid (2-methoxy-1,1-dimethyl-ethyl)-amide] | 6.94
8 | COCC(C)(C)NC(=O)[C@@H]1CN(CC2CC2)CC[C@H]1NC(=O)c1cc(-c2c(F)cc(F)cc2F)on1 (single isomer, unassigned) [Example 1.113a, (3R*,4R*)-1-Cyclopropylmethyl-4-{[5-(2,4,6-trifluoro-phenyl)-isoxazole-3-carbonyl]-amino}-piperidine-3-carboxylic acid (2-methoxy-1,1-dimethyl-ethyl)-amide] | 6.25
9 | COCC(C)(C)NC(=O)[C@@H]1CN(CC2CC2)CC[C@H]1NC(=O)c1cc(-c2c(F)cc(F)cc2F)on1 (single isomer, unassigned) [Example 1.113b, (3R*,4R*)-1-Cyclopropylmethyl-4-{[5-(2,4,6-trifluoro-phenyl)-isoxazole-3-carbonyl]-amino}-piperidine-3-carboxylic acid (2-methoxy-1,1-dimethyl-ethyl)-amide] | 7.32
10 | C[C@@H](NC(=O)[C@H]1CN(C2CCCCC2)CC[C@@H]1NC(=O)c1cn(-c2ccc(F)cc2F)nn1)c1ccccn1 (single isomer, unassigned) [Example 1.117a, (3S,4S)-1-Cyclohexyl-4-{[1-(2,4-difluoro-phenyl)-1H-[1,2,3]triazole-4-carbonyl]-amino}-piperidine-3-carboxylic acid ((R)-1-pyridin-2-yl-ethyl)-amide or (3R,4R)-1-Cyclohexyl-4-{[1-(2,4-difluoro-phenyl)-1H-[1,2,3]triazole-4-carbonyl]-amino}-piperidine-3-carboxylic acid ((R)-1-pyridin-2-yl-ethyl)-amide] | 7.41
11 | C[C@@H](NC(=O)[C@H]1CN(C2CCCC2)CC[C@@H]1NC(=O)c1cn(-c2ccc(F)cc2F)nn1)c1ccccn1 (single isomer, unassigned) [Example 1.118a, (3S,4S)-1-Cyclopentyl-4-{[1-(2,4-difluoro-phenyl)-1H-[1,2,3]triazole-4-carbonyl]-amino}-piperidine-3-carboxylic acid ((R)-1-pyridin-2-yl-ethyl)-amide or (3R,4R)-1-Cyclopentyl-4-{[1-(2,4-difluoro-phenyl)-1H-[1,2,3]triazole-4-carbonyl]-amino}-piperidine-3-carboxylic acid ((R)-1-pyridin-2-yl-ethyl)-amide] | 7.12
12 | C[C@@H](NC(=O)[C@@H]1CN(C2CCCCC2)CC[C@H]1NC(=O)c1cc(-c2c(F)cc(F)cc2F)on1)c1ccccn1 (single isomer, unassigned) [Example 1.121a, (3R*,4R*)-1-Cyclohexyl-4-{[5-(2,4,6-trifluoro-phenyl)-isoxazole-3-carbonyl]-amino}-piperidine-3-carboxylic acid ((R)-1-pyridin-2-yl-ethyl)-amide] | 6.13
13 | C[C@@H](NC(=O)[C@@H]1CN(C2CCCCC2)CC[C@H]1NC(=O)c1cc(-c2c(F)cc(F)cc2F)on1)c1ccccn1 (single isomer, unassigned) [Example 1.121b, (3R*,4R*)-1-Cyclohexyl-4-{[5-(2,4,6-trifluoro-phenyl)-isoxazole-3-carbonyl]-amino}-piperidine-3-carboxylic acid ((R)-1-pyridin-2-yl-ethyl)-amide] | 8.70
14 | C[C@@H](NC(=O)[C@@H]1CN(C2CCCC2)CC[C@H]1NC(=O)c1cc(-c2c(F)cc(F)cc2F)on1)c1ccccn1 (single isomer, unassigned) [Example 1.122a, (3R*,4R*)-1-Cyclopentyl-4-{[5-(2,4,6-trifluoro-phenyl)-isoxazole-3-carbonyl]-amino}-piperidine-3-carboxylic acid ((R)-1-pyridin-2-yl-ethyl)-amide] | 6.28
15 | C[C@@H](NC(=O)[C@@H]1CN(C2CCCC2)CC[C@H]1NC(=O)c1cc(-c2c(F)cc(F)cc2F)on1)c1ccccn1 (single isomer, unassigned) [Example 1.122b, (3R*,4R*)-1-Cyclopentyl-4-{[5-(2,4,6-trifluoro-phenyl)-isoxazole-3-carbonyl]-amino}-piperidine-3-carboxylic acid ((R)-1-pyridin-2-yl-ethyl)-amide] | 7.77
16 | C[C@@H](NC(=O)[C@H]1CN(CC2CC2)CC[C@@H]1NC(=O)c1cc(-c2c(F)cc(F)cc2F)on1)c1ccccn1 (single isomer, unassigned) [Example 1.123a, (3S,4S)-1-Cyclopropylmethyl-4-{[5-(2,4,6-trifluoro-phenyl)-isoxazole-3-carbonyl]-amino}-piperidine-3-carboxylic acid ((R)-1-pyridin-2-yl-ethyl)-amide or (3R,4R)-1-Cyclopropylmethyl-4-{[5-(2,4,6-trifluoro-phenyl)-isoxazole-3-carbonyl]-amino}-piperidine-3-carboxylic acid ((R)-1-pyridin-2-yl-ethyl)-amide] | 8.40
17 | C[C@@H](NC(=O)[C@H]1CN(C2CCCCC2)CC[C@@H]1NC(=O)c1cc(-c2ccc(F)cc2F)no1)c1ccccn1 (single isomer, unassigned) [Example 1.125a, (3S,4S)-1-Cyclohexyl-4-{[3-(2,4-difluoro-phenyl)-isoxazole-5-carbonyl]-amino}-piperidine-3-carboxylic acid ((R)-1-pyridin-2-yl-ethyl)-amide or (3R,4R)-1-Cyclohexyl-4-{[3-(2,4-difluoro-phenyl)-isoxazole-5-carbonyl]-amino}-piperidine-3-carboxylic acid ((R)-1-pyridin-2-yl-ethyl)-amide] | 7.52
18 | C[C@@H](NC(=O)[C@@H]1CN(C2CCCCC2)CC[C@H]1NC(=O)c1cc(-c2c(F)cc(F)cc2F)on1)c1cnccn1 (single isomer, unassigned) [Example 1.129a, (3R*,4R*)-1-Cyclohexyl-4-{[5-(2,4,6-trifluoro-phenyl)-isoxazole-3-carbonyl]-amino}-piperidine-3-carboxylic acid ((R)-1-pyrazin-2-yl-ethyl)-amide] | 6.19
19 | C[C@@H](NC(=O)[C@@H]1CN(C2CCCCC2)CC[C@H]1NC(=O)c1cc(-c2c(F)cc(F)cc2F)on1)c1cnccn1 (single isomer, unassigned) [Example 1.129b, (3R*,4R*)-1-Cyclohexyl-4-{[5-(2,4,6-trifluoro-phenyl)-isoxazole-3-carbonyl]-amino}-piperidine-3-carboxylic acid ((R)-1-pyrazin-2-yl-ethyl)-amide] | 7.46
20 | C[C@@H](NC(=O)[C@@H]1CN(C2CCCC2)CC[C@H]1NC(=O)c1cc(-c2c(F)cc(F)cc2F)on1)C1CCC1 (single isomer, unassigned) [Example 1.138a, (3R*,4R*)-1-Cyclopentyl-4-{[5-(2,4,6-trifluoro-phenyl)-isoxazole-3-carbonyl]-amino}-piperidine-3-carboxylic acid ((R)-1-cyclobutyl-ethyl)-amide] | 6.36
21 | C[C@@H](NC(=O)[C@@H]1CN(C2CCCC2)CC[C@H]1NC(=O)c1cc(-c2c(F)cc(F)cc2F)on1)C1CCC1 (single isomer, unassigned) [Example 1.138b, (3R*,4R*)-1-Cyclopentyl-4-{[5-(2,4,6-trifluoro-phenyl)-isoxazole-3-carbonyl]-amino}-piperidine-3-carboxylic acid ((R)-1-cyclobutyl-ethyl)-amide] | 7.08

Source: patent US11306078B2, “Piperidine CXCR7 receptor modulators” (IDORSIA PHARMACEUTICALS LTD., priority 2016, dated 2022)
